Values of other authors, collected in patent US20090191608A1, “Pancreatic Islet Cell Preparation and Transplantation” (Baylor Research Institute, priority 2008, published 2009).

What was measured:
[1] = in vivo

| Half-life [1] | Time to reach a new steady-state level after the change of dose [1] [weeks] | Compound | Occurrence of mouth ulcers (most common side effect) | Incidence of heparin-induced thrombocytopenia (in vivo) [%] |
| --- | --- | --- | --- | --- |
| approximately 3 days | 2 | CO[C@H]1C[C@@H]2CC[C@@H](C)[C@@](O)(O2)C(=O)C(=O)N2CCCC[C@H]2C(=O)O[C@H]([C@H](C)C[C@@H]2CC[C@@H](O)[C@H](OC)C2)CC(=O)[C@H](C)/C=C(\C)[C@@H](O)[C@@H](OC)C(=O)[C@H](C)C[C@H](C)/C=C/C=C/C=C/1C [Sirolimus] | up to 85% | – |
| – | – | Enoxaparin [Lovenox] | – | 0.2 |
